Experimental data as given in US9446015B2, “Quinone based nitric oxide donating compounds for ophthalmic use” (NICOX SCIENCE IRELAND, priority 2012, dated 2016).

Legend:
[1] = system: hypertonic saline-induced IOP increase in rabbits; assay: IOP lowering activity in hypertonic saline-induced IOP increase in rabbits; format: in vivo, New Zealand White rabbits
Description: Intraocular pressure (IOP) lowering activity in hypertonic saline-induced IOP increase in rabbits.
This animal model of elevated IOP was used for assessing the intraocular pressure (IOP) lowering activities of some compounds of the invention, timolol, dorzolamide and 5-isosorbide mononitrate.
• compounds (6), (20) and (25) • timolol and dorzolamide that are drugs commonly used for the treatment of glaucoma and ocular hypertension. • Isosorbide mononitrate (5-ISMN) that is a commonly used nitric oxide donor drug.
(§1) Timolol, dorzolamide and 5-ISMN were tested as reference compounds. Adults male New Zealand White rabbits weighting 1.8-2.0 Kg were used in the experiments.
IOP was measured using a Tono-Pen XL prior to hypertonic saline injection (basal) and at 30, 60, 120 and 240 min thereafter. Vehicle (5% cremophor-EL; 0.3% DMSO; 0.2 mg/ml BAK in PBS pH 6.0) and all the tested compounds dissolved in the vehicle were instilled as eye drops immediately after hypertonic saline injection. Eyes were randomly assigned to different treatment groups. Vehicle and the tested compounds were directly instilled into the conjunctiva pocket at the desired doses. One drop of 0.4% oxybuprocaine hydrochloride (Novesine, Sandoz) was instilled in each eye immediately before each set of pressure measurements.
Results are reported in Table 6, the ocular hypotensive activities of the tested compounds are expressed as IOP change at 60 and 120 minutes after topical administration versus vehicle and versus the basal IOP.

[2] = system: rat L-NAME-induced hypertension; assay: Systolic blood pressure in rat L-NAME-induced hypertension, single oral dose; format: in vivo; settings: Comp. (6) 100 mg/kg oral; 3 hours
Experimental: To assess the in vivo NO-dependent activity, Compound (6) was evaluated for systolic blood pressure (SBP) reduction efficacy in a rat model of NO-deprivation induced by L-NAME and compared with 5-ISMN.
(§2) Fasted male SD rats (250-300 g, n=3-5 per group), obtained from Harlan Italy (Correzzana, Milan, Italy) were orally treated with tested compounds or vehicle (DMSO:Methocel 1% 2/98 v/v) in a total volume of 4 ml/kg by gavage. At each time point (1, 3, 6 and 24 h) animals were deeply anesthetized with Zoletil® 100 (3 mg/kg), given intramuscularly. Thereafter, a pressure catheter (Samba Sensors, Harvard Apparatus, UK) was introduced into the common carotid artery for central blood pressure measurement. Pressure transducer was connected to a personal computer, in order to allow real time monitor of the pressure tracing. After 10 minutes of basal recording, L-NAME (50 mg/kg) was administered intraperitoneally and the effect on SBP monitored. When the SBP stabilized (5 minutes without variations) the recording was stopped. To further confirm that functional activity was NO-dependent, at each time point blood ^15N-nitrite levels were measured following the procedure described in Example 12.

[3] = system: isolated aortas from rats; assay: Ex vivo tolerance evaluation, vascular response of isolated rat aortas; format: cell-based; settings: 5-day oral treatment; 5-ISMN 30 mg/kg, Compound (6) 100 mg/kg
Experimental: Thoracic aortas from male New Zealand rabbits or male Sprague Dawley (SD) were used. The aortas were placed immediately in Krebs-HEPES buffer (pH 7.4; composition mM: NaCl 130.0, KCl 3.7, NaHCO3 14.9, KH2PO4 1.2, MgSO4.7H2O 1.2, Glucose 11.0, HEPES 10.0, CaCl2.2H2O 1.6). Connective tissue was removed and aortas were cut into ring segments (4-5 mm in length). Each ring was placed in a 5 mL tissue bath filled with Krebs-HEPES buffer (37° C.) aerated with 95% O2 and 5% CO2 and was attached to a force transducer (Grass FT03), connected to a BIOPAC MP150 System for measurement of the isometric tension. Preparations were allowed to equilibrate for 1 h at a resting tension of 2 g for rabbit aortas and 1 g for rat aortas with changes of the buffer every 15 min. Then the rings were stimulated by exposure to 90 mM KCl (3 times) with intervening washings.
Rat aorta. After equilibration, rat aortas were precontracted with KCl (90 mM) and, when the contraction was stable, a cumulative concentration-response curve to acetylcholine (ACh, 0.01-100 μM) was added. After washout, the rings were precontracted again with KCl (90 mM). When a steady-state level of contraction was obtained, a cumulative concentration-response curve to the tested compounds (0.01-100 μM) was obtained.
Data analysis. Results are given as mean±SEM. Vascular responses are expressed as percentage relaxation and plotted vs concentration. The sensitivity of isolated aorta to different vasodilators is expressed as the concentration that elicited 50% of the maximal responses (EC50). Responses are quantified in terms of EC50 and Emax (maximal vasodilating effect) values, obtained from the concentration-response curve by nonlinear curve fitting, using GraphPad software.
Tolerance to nitrate was further investigated assessing the vascular effects of Compound (6) following repeated treatment compared with 5-ISMN. The vascular response to the compound itself was assessed on isolated aortas from rats orally treated for 5 days with Compound (6) (100 mg/kg). The vascular response was performed as described in Example 6.
Vascular responses were performed 1 h (ISMN) or 3 h (Compound (6)) after the last administration, the concentrations of tested compound that elicited the 50% of the maximal responses (EC50) are shown in Table 4.

[4] = system: ocular normotensive New Zealand rabbits; assay: IOP lowering activity in ocular normotensive New Zealand rabbits; format: in vivo, New Zealand White rabbits
Experimental: Intraocular pressure (IOP) lowering activity in ocular normotensive New Zealand rabbits.
• compound (6) • timolol that is a drug commonly used for the treatment of glaucoma and ocular hypertension. • Isosorbide mononitrate (5-ISMN) that is a commonly used nitric oxide donor drug.
as §1
IOP was measured using a pneumatonometer 30 CLASSIC™ before topical application (basal) and a different time point (30, 60, 120, 240 and 300 min) thereafter. Vehicle (5% cremophor-EL; 0.3% DMSO; 0.2 mg/ml BAK in PBS pH 6.0) or tested compounds dissolved in the vehicle were instilled as eye drops into the conjunctiva pocket. Eyes were randomly assigned to different treatment groups. One drop of 0.4% oxybuprocaine hydrochloride (Novesine, Sandoz) was instilled in each eye immediately before each set of pressure measurements.
The test results are reported in Table 7, the ocular hypotensive activity is expressed as IOP changes at 30, 60, 120 and 300 minutes after topical administration versus vehicle and versus IOP at basal.

[5] = system: rat L-NAME-induced hypertension; assay: In vivo tolerance evaluation, L-NAME-induced hypertension after 5-day oral treatment; settings: 5-ISMN 30 mg/kg, compound (6) 100 mg/kg
Experimental: as §2
To investigate whether the compound (6) induced nitrate tolerance, as observed for most of the drugs belonging to the nitrate class, the L-NAME-induced hypertension rat model described in Example 7 was performed following a repeated oral treatment. Rats were orally treated for 5 days with vehicle, compound (6) (100 mg/kg) or 5-ISMN (30 mg/kg). […] The experiments were performed at the peak effect (1 hour for 5-ISMN and 3 hours for Compound (6)), results are reported in Table 3.

[6] = 60 min after topical administration
[7] = 120 min after topical administration

SMILES: COC1=C(OC)C(=O)C(CCCCCCCCCCO[N+](=O)[O-])=C(C)C1=O [Compound (6), 10-(4,5-dimethoxy-2-methyl-3,6-dioxocyclohexa-1,4-dienyl)decyl nitrate]
- ΔΔ (mmHg), IOP change versus vehicle and versus basal IOP [1, 6]: −7.4 ± 2.7 mmHg
- ΔΔ (mmHg), IOP change versus vehicle and versus basal IOP [1, 7]: −9.8 ± 2.0 mmHg
- Delta vs basal (mmHg), systolic blood pressure [2]: 14 ± 3.8 mmHg
- vascular sensitivity of aortas of treated animals to the compound itself versus vehicle/control arteries [3]: showed the same sensitivity
- ΔΔ (mmHg), IOP change versus vehicle and versus IOP at basal ([4]; 30 min after topical administration): −1.8 ± 0.4 mmHg
- ΔΔ (mmHg), IOP change versus vehicle and versus IOP at basal [4, 6]: −1.6 ± 0.3 mmHg
- ΔΔ (mmHg), IOP change versus vehicle and versus IOP at basal [4, 7]: −1.3 ± 0.5 mmHg
- ΔΔ (mmHg), IOP change versus vehicle and versus IOP at basal ([4]; 300 min after topical administration): −1.5 ± 0.4 mmHg
- efficacy in preventing L-NAME-induced hypertension after 5-day oral treatment [5]: counteracted L-NAME-induced hypertension
